Data reported in patent EP0320630A1, “Enantiometric iodobenzamides” (THE VANDERBILT UNIVERSITY, priority 1987, dated 1989).

What was measured:
dopamine D-2 receptor [1] = target: T1, dopamine D-2 receptor (Rattus norvegicus, UniProt P61169); test: Blocking of [3H](S)-sulpiride binding to rat striatal membranes; conditions: radioligand [3H](S)-sulpiride at 5.0 nM; rat striatal membrane preparation; 30 min at 37 °C
T1 construct: 90 µL of the striatal membrane preparation; from tissue; host or cells: rat striatum (membrane homogenate)
Protocol: (§1) The procedure, described by de […]., and Beart P.M., Eur. J. Pharmacol. 106 133-139 (1984), is as follows: Male Sprague-Dawley rats (150-200 g) were killed by decapitation and their brains quickly removed and dissected on ice. Striata were dissected and homogenized in 40 vol of ice-cold 50 mM Tris-HCl buffer (pH 7.4) containing 120 mM sodium chloride, 5 mM potassium chloride, 2 mM calcium chloride, and 1 mM magnesium chloride using a Brinkman Polytron. The suspension was centrifuged at 30,000 x g for 10 min at 4 °C, and the pellet was resuspended in 40 vol of fresh buffer. The suspension was incubated at 37 °C for 10 min, centrifuged again at 30,000 x g for 10 min at 4 °C, and the final pellet was resuspended with the polytron in 200 vol of ice cold buffer. […] Tubes were incubated for 30 min at 37 °C, poured over Whatman GF/B filters under vacuum, and the filters were rinsed three times with 4 mL of ice cold buffer.

dopamine D-2 receptor [2] = target: T1, dopamine D-2 receptor; test: Blocking of [3H]spiperone binding to rat striatal membranes; conditions: radioligand [3H]spiperone at 0.5 nM; rat striatal membrane preparation; 30 min at 37 °C
Protocol: as §1

T1 sequence (P61169 whole entry): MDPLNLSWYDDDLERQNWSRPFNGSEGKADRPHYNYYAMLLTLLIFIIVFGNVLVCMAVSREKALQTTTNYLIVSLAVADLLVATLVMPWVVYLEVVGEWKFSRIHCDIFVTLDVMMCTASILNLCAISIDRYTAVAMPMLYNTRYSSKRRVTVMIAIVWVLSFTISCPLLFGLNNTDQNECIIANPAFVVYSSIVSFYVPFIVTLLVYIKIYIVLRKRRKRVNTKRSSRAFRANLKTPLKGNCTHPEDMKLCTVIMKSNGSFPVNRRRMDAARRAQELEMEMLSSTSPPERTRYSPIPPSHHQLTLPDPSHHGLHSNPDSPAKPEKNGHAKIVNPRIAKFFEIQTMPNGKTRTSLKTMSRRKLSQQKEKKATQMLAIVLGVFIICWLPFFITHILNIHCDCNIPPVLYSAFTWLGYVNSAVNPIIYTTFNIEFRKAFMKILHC

SMILES: CCN1CCC[C@@H]1CNC(=O)c1cc(I)ccc1OC
- IC50 (dopamine D-2 receptor [1]): 145 ± 5 nM
- IC50 (dopamine D-2 receptor [2]): 560 ± 200 nM

SMILES: CCN1CCC[C@H]1CNC(=O)c1cc(I)ccc1OC
- IC50 (dopamine D-2 receptor [1]): 3.3 ± 0.9 nM
- IC50 (dopamine D-2 receptor [2]): 16.4 ± 4.9 nM
